“Also recorded” adds a separate entry of the source. Structures can show the parent of a compound that is named as a salt.
What was measured:
[1] = system: α4β2 receptors; details: rats, Felix and Levin (1997); cited from earlier work
[2] = system: nAChRs; details: Damaj, et al. (1999); cited from earlier work
[3] = system: heterozygous L9′S α4 and wild type mice; test: Behavioral scoring of nicotine-induced seizure activity and Straub tail; format: in vivo, mouse
Excerpt: To pharmacologically characterize the L9′S mutation effects on seizure induction in the α4 mice behavioral responses to pharmacologic stimulation were videotaped and scored.

[4] = molecular target: T1, mutated (α4 Leu9′Ser) rat α4β2 receptors (Rattus norvegicus, UniProt P09483+P12390, L285S); test: Two-electrode voltage clamp, agonist concentration-response of mutated α4β2 receptors expressed in Xenopus oocytes; format: cell-based
T1 construct: expressed in transfected cells; host or cells: Xenopus oocytes (capped mRNA injected, α4L9′S/β2 1:1)
Experimental: FIG. 1C, the agonist is choline.
Xenopus Oocyte Injections and Electrophysiology The α4 and β2 subunits were subcloned into pAMV-PA (Nowak, et al.(1998) Methods Enzymol. 293, 504-529). Capped mRNA transcripts were prepared, and α4/β2 (2 ng, 1:1) or α4L9′/β2 (0.2-0.5 ng, 1:1) were microinjected into Xenopus oocytes. Twenty-four to seventy-two hours later, two-electrode voltage clamp recordings were made in solutions containing zero […].
Chimeric males from the resulting two mouse lines, neo-intact and neo-deleted, were bred to C57BL/6 females to generate animals heterozygous for the mutation, and mice were tested for the mutation by sequencing of genomic DNA (FIG. 1F).

[5] = system: WT and heterozygous (het) neo-intact mutants; test: Ambulation (locomotion) of WT and heterozygous neo-intact mice after drug injection; format: in vivo, mouse
[6] = system: heterozygous and WT mice; details: nicotine 0.1 mg/kg
Excerpt: Mouse electroencephalography can also be used to examine the susceptibility of transgenic mice to seizures. A surgical and electrophysiological rig that allows simultaneous video-electroencephalographic (EEG) recordings in free moving animals can be used. For EEG electrode implants, mice are anesthetized with a ketamine-xylazine mixture, 0.2 mm-diameter tungsten wire electrodes are positioned through drilled holes in the cranium in a twisted pair configuration and placed stereotactically within different regions of the brain. A three-pin microconnector (ground electrode plus two recording electrodes) is cemented to the skull surface. Following surgery, mice are allowed to recover for 48 hours.

[7] = system: cells in acute midbrain slices from α4 mutant heterozygous and wild type animals; test: Electrophysiology on acute midbrain slices; format: cell-based, mouse; details: heterozygous vs wild type
Excerpt: Electrophysiological studies on brain slices derived from transgenic α4 mice. Slices obtained from frontal cerebral cortex, hippocampus, and midbrain can be used for field and intracellular recordings. Field recordings serve to determine whether various compounds cause or block synchronized firing in these neuronal ensembles. Whole-cell patch recordings provide information regarding activation and/or desensitization of nAChRs in individual neurons when exposed to various agonists and antagonists, as well as the effects of these compounds on firing rates. Because interneurons express most of the α4 receptors, recordings from interneurons and IPSC's in pyramidal cells are useful for study.

[8] = system: neurons from transgenic L9′S and WT mice; details: 10 μM nicotine
Excerpt: The paradigms described above can be implemented in slices derived from other brain areas such as the cortex and the midbrain. Large inhibitory and excitatory potentials can be recorded from pyramidal cells in cortical slices (Hasselmo and Barkai (1995). J. Neurosci 15, 6592-604).

T1 sequence (P09483 31-630 L285S): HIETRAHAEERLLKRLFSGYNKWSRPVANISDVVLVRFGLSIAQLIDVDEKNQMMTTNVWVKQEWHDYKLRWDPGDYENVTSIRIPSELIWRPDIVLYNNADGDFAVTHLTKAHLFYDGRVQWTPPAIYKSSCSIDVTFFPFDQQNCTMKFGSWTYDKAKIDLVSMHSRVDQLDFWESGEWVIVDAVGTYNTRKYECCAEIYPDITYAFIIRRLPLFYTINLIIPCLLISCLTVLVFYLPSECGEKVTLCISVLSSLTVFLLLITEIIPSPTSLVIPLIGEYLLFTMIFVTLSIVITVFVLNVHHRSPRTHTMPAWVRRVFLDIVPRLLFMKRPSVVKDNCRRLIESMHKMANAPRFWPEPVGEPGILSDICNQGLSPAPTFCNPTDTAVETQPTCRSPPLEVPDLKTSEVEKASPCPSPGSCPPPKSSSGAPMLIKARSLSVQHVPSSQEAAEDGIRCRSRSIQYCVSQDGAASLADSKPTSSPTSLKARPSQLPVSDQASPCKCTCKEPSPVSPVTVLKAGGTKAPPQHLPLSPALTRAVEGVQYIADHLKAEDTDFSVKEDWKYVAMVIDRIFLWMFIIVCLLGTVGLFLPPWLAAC
T1 sequence (P12390 25-500): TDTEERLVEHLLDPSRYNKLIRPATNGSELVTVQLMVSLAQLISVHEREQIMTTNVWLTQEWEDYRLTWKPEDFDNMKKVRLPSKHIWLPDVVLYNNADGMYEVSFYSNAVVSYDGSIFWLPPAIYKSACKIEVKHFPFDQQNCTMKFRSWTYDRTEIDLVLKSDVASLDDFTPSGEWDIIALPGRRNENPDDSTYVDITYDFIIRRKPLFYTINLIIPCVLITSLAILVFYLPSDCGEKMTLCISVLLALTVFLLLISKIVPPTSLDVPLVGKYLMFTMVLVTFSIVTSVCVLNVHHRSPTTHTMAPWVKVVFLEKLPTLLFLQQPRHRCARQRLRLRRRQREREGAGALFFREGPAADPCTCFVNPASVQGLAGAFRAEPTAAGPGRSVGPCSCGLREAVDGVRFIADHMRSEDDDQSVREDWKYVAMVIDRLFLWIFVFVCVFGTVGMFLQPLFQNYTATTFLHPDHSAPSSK

Compound: CO[C@H]1CC=C2CCN3CCC4=C(CC(=O)OC4)[C@]23C1 [DHβE, Dihydro-β-erythroidine]
- seizure induction [1]: induce seizures

Compound: CNC1(C)C2CCC(C2)C1(C)C (stereo not shown) [mecamylamine]
- block of nicotine-induced seizures [2]: effective nicotine-induced seizure blocker
- effect on nicotine effects (seizures, Straub tail) ([3]; mecamylamine 2 mg/kg, both hets and WT): partially blocked

Compound: C[N+](C)(C)CCO [choline]
- activation of the mutated receptor, % of maximal values ([4]; choline about 10 μM): 20%

Compound: CN1CCCC1c1cccnc1 (stereo not shown) [nicotine]
- sensitivity of L9′S nAChRs expressed in frog oocytes to the ligand ([4]; summary statement): increased sensitivity
- shift of the dose-response relation to the left by the Leu-9′-Ser mutation (increase in agonist sensitivity) ([4]; α4β2 receptor tested in oocytes, mutant vs WT): about 30 fold
- effect on locomotor activity of WT mice ([5]; nicotine 0.02 mg/kg i.p., WT mice): no significant difference; also recorded: not affected
- effect on locomotor activity of heterozygous knock-in mice ([5]; nicotine 0.02 mg/kg i.p., heterozygous mice, 5-15 min after injection): significant reduction of locomotor activity; also recorded: sharply reduces the level of activity
- doses required for severe tonic-clonic seizures in WT animals ([3]; WT): > 10 mg/kg
- threshold to nicotine-induced seizures in L9′S knock-in mice ([3]; summary statement): reduced threshold
- EEG recordings of WT ([6]; WT): unaffected
- EEG response of a heterozygous mouse ([6]; heterozygous): Rapid-burst discharges
- amplitude of 6 Hz theta rhythm in a heterozygous mouse ([6]; heterozygous): two-fold increased amplitude
- concentrations to which heterozygous cells respond relative to those activating receptors in wild type slices [7]: ten times lower
- response of WT-derived cells ([8]; WT): remained silent or required much larger concentrations to be activated
- response of neurons from transgenic mice ([8]; majority of neurons): responded with spontaneous bursts

Compound: C[C@H](N)Cc1ccccc1 [amphetamine, d-amphetamine sulfate]
- locomotor response in young mice ([5]; 5 mg/kg i.p., about 3-month-old WT and heterozygous mice): stimulated locomotion
- locomotor response of heterozygous mice at 11 months vs 3 months ([5]; 5 mg/kg i.p., heterozygous, 11 months of age): declines significantly; also recorded: reduced amphetamine-induced locomotion

Compound: CCN(CC)CCCCCCCCOC(=O)c1cc(OC)c(OC)c(OC)c1.Cl [8-(diethylamino)octyl 3,4,5-trimethoxyben-zoate hydrochloride]
- effect on increased leakage currents in oocytes expressing α4L9′S/β2 receptor ([4]; 500 nM, nine oocytes): blockable
